Measurements reported in publication PMC11576293, “New series of 4,6-diaryl pyrimidines: facile synthesis and antiproliferative activity as dual EGFR/VEGFR-2 inhibitors” (Frontiers in Chemistry, 2024).

What was measured:
Experiment in all cases: NCI-60 single-dose screen
Assay type in all cases: cell-based
IGROV1 = conditions: Homo sapiens, IGROV-1, single dose 10 µM, '-' = no inhibition, read-out: % Growth Inhibition
In short: (§1)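 Was run as a one-dose (10 μM) screen by the NCI Developmental Therapeutics Program, covering 60 tumour cell lines from nine cancer types including renal, melanoma and CNS.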

HCC-2998 = conditions: Homo sapiens, single dose 10 µM, '-' = no inhibition, read-out: % Growth Inhibition
In short: as §1

TK-10 = conditions: Homo sapiens, single dose 10 µM, '-' = no inhibition, read-out: % Growth Inhibition
In short: as §1

SK-MEL-2 = conditions: Homo sapiens, single dose 10 µM, '-' = no inhibition, read-out: % Growth Inhibition
In short: as §1

NCI-H522 = conditions: Homo sapiens, single dose 10 µM, '-' = no inhibition, read-out: % Growth Inhibition
In short: as §1

OVCAR-5 = conditions: Homo sapiens, single dose 10 µM, '-' = no inhibition, read-out: % Growth Inhibition
In short: as §1

HOP-62 = conditions: Homo sapiens, single dose 10 µM, '-' = no inhibition, read-out: % Growth Inhibition
In short: as §1

RXF 393 = conditions: Homo sapiens, single dose 10 µM, '-' = no inhibition, read-out: % Growth Inhibition
In short: as §1

BT-549 = conditions: Homo sapiens, single dose 10 µM, '-' = no inhibition, read-out: % Growth Inhibition
In short: as §1

UACC-62 = conditions: Homo sapiens, single dose 10 µM, '-' = no inhibition, read-out: % Growth Inhibition
In short: as §1

HL-60(TB) = conditions: Homo sapiens, single dose 10 µM, '-' = no inhibition, read-out: % Growth Inhibition
MDA-MB-435 = conditions: Homo sapiens, single dose 10 µM, '-' = no inhibition, read-out: % Growth Inhibition
In short: as §1

HCT-116 = conditions: Homo sapiens, single dose 10 µM, '-' = no inhibition, read-out: % Growth Inhibition
In short: as §1

A549/ATCC = conditions: Homo sapiens, single dose 10 µM, '-' = no inhibition, read-out: % Growth Inhibition
In short: as §1

RPMI-8226 = conditions: Homo sapiens, single dose 10 µM, '-' = no inhibition, read-out: % Growth Inhibition
In short: as §1

OVCAR-4 = conditions: Homo sapiens, single dose 10 µM, '-' = no inhibition, read-out: % Growth Inhibition
In short: as §1

EKVX = conditions: Homo sapiens, single dose 10 µM, '-' = no inhibition, read-out: % Growth Inhibition
In short: as §1

MCF7 = conditions: Homo sapiens, single dose 10 µM, '-' = no inhibition, read-out: % Growth Inhibition
In short: as §1

SK-MEL-5 = conditions: Homo sapiens, single dose 10 µM, '-' = no inhibition, read-out: % Growth Inhibition
In short: as §1

CAKI-1 = conditions: Homo sapiens, single dose 10 µM, '-' = no inhibition, read-out: % Growth Inhibition
In short: as §1

NCI-H23 = conditions: Homo sapiens, single dose 10 µM, '-' = no inhibition, read-out: % Growth Inhibition
In short: as §1

LOX IMVI = conditions: Homo sapiens, single dose 10 µM, '-' = no inhibition, read-out: % Growth Inhibition
In short: as §1

MDA-MB-468 = conditions: Homo sapiens, single dose 10 µM, '-' = no inhibition, read-out: % Growth Inhibition
In short: as §1

OVCAR-8 = conditions: Homo sapiens, single dose 10 µM, '-' = no inhibition, read-out: % Growth Inhibition
In short: as §1

NCI/ADR-RES = conditions: Homo sapiens, single dose 10 µM, '-' = no inhibition, read-out: % Growth Inhibition
In short: as §1

U251 = conditions: Homo sapiens, U-251, single dose 10 µM, '-' = no inhibition, read-out: % Growth Inhibition
In short: as §1

OVCAR-3 = conditions: Homo sapiens, single dose 10 µM, '-' = no inhibition, read-out: % Growth Inhibition
In short: as §1

DU-145 = conditions: Homo sapiens, single dose 10 µM, '-' = no inhibition, read-out: % Growth Inhibition
In short: as §1

PC-3 = conditions: Homo sapiens, single dose 10 µM, '-' = no inhibition, read-out: % Growth Inhibition
In short: as §1

SR = conditions: Homo sapiens, single dose 10 µM, '-' = no inhibition, read-out: % Growth Inhibition
In short: as §1

UO-31 = conditions: Homo sapiens, single dose 10 µM, '-' = no inhibition, read-out: % Growth Inhibition
In short: as §1

NCI-H322M = conditions: Homo sapiens, single dose 10 µM, '-' = no inhibition, read-out: % Growth Inhibition
In short: as §1

SN12C = conditions: Homo sapiens, single dose 10 µM, '-' = no inhibition, read-out: % Growth Inhibition
In short: as §1

MALME-3M = conditions: Homo sapiens, single dose 10 µM, '-' = no inhibition, read-out: % Growth Inhibition
In short: as §1

ACHN 1 = conditions: Homo sapiens, single dose 10 µM, '-' = no inhibition, read-out: % Growth Inhibition
In short: as §1

SF-268 = conditions: Homo sapiens, single dose 10 µM, '-' = no inhibition, read-out: % Growth Inhibition
In short: as §1

KM12 = conditions: Homo sapiens, single dose 10 µM, '-' = no inhibition, read-out: % Growth Inhibition
In short: as §1

SK-MEL-28 = conditions: Homo sapiens, single dose 10 µM, '-' = no inhibition, read-out: % Growth Inhibition
In short: as §1

UACC-257 = conditions: Homo sapiens, single dose 10 µM, '-' = no inhibition, read-out: % Growth Inhibition
In short: as §1

COLO 205 = conditions: Homo sapiens, single dose 10 µM, '-' = no inhibition, read-out: % Growth Inhibition
In short: as §1

A498 = conditions: Homo sapiens, single dose 10 µM, '-' = no inhibition, read-out: % Growth Inhibition
In short: as §1

HOP-92 = conditions: Homo sapiens, single dose 10 µM, '-' = no inhibition, read-out: % Growth Inhibition
In short: as §1

K-562 = conditions: Homo sapiens, K562, single dose 10 µM, '-' = no inhibition, read-out: % Growth Inhibition
In short: as §1

SNB-19 = conditions: Homo sapiens, single dose 10 µM, '-' = no inhibition, read-out: % Growth Inhibition
In short: as §1

MDA-MB231/ATCC = conditions: Homo sapiens, MDA-MB-231, single dose 10 µM, '-' = no inhibition, read-out: % Growth Inhibition
In short: as §1

786-0 = conditions: Homo sapiens, single dose 10 µM, '-' = no inhibition, read-out: % Growth Inhibition
In short: as §1

NCI-H460 = conditions: Homo sapiens, single dose 10 µM, '-' = no inhibition, read-out: % Growth Inhibition
In short: as §1

SNB-75 = conditions: Homo sapiens, single dose 10 µM, '-' = no inhibition, read-out: % Growth Inhibition
In short: as §1

`COc1ccc(-c2cc(-c3cccc(OC)c3)nc(SC)n2)cc1` [Compound 16, 6-(3-Methoxyphenyl)-4-(4-methoxyphenyl)-2-(methylthio)pyrimidine] gave an inhibition at 10 µM (IGROV1) of less than 0%, an inhibition at 10 µM (HCC-2998) of less than 0% and an inhibition at 10 µM (TK-10) of less than 0%. For the same compound, the inhibition at 10 µM (SK-MEL-2) was 2.91%, the inhibition at 10 µM (NCI-H522) was 14.1% and the inhibition at 10 µM (OVCAR-5) was less than 0%. It also gave an inhibition at 10 µM (HOP-62) of 1.53%, an inhibition at 10 µM (RXF 393) of 11.6% and an inhibition at 10 µM (BT-549) of 3.3%. For the same compound, the inhibition at 10 µM (UACC-62) was 23.9%, the inhibition at 10 µM (HL-60(TB)) was 22.2% and the inhibition at 10 µM (MDA-MB-435) was 6.06%. For the same compound, the inhibition at 10 µM (HCT-116) was 17.3%, the inhibition at 10 µM (A549/ATCC) was 13% and the inhibition at 10 µM (RPMI-8226) was 3.81%. It also gave an inhibition at 10 µM (OVCAR-4) of 8.29%, an inhibition at 10 µM (EKVX) of 21.7% and an inhibition at 10 µM (MCF7) of 11.3%. It also gave an inhibition at 10 µM (SK-MEL-5) of 6.46%, an inhibition at 10 µM (CAKI-1) of 20.8% and an inhibition at 10 µM (NCI-H23) of 2.58%. It also gave an inhibition at 10 µM (LOX IMVI) of 0.51%, an inhibition at 10 µM (MDA-MB-468) of 17.4% and an inhibition at 10 µM (OVCAR-8) of 6.48%. The inhibition at 10 µM (NCI/ADR-RES) was 11.6%, the inhibition at 10 µM (U251) was 10.7% and the inhibition at 10 µM (OVCAR-3) was less than 0%. For the same compound, the inhibition at 10 µM (DU-145) was 6.56%, the inhibition at 10 µM (PC-3) was 16.6% and the inhibition at 10 µM (SR) was 27.7%. The inhibition at 10 µM (UO-31) was 20%, the inhibition at 10 µM (NCI-H322M) was less than 0% and the inhibition at 10 µM (SN12C) was 17.9%. It also gave an inhibition at 10 µM (MALME-3M) of less than 0%, an inhibition at 10 µM (ACHN 1) of less than 0% and an inhibition at 10 µM (SF-268) of 15.7%. It also gave an inhibition at 10 µM (KM12) of 6.2%, an inhibition at 10 µM (SK-MEL-28) of less than 0% and an inhibition at 10 µM (UACC-257) of less than 0%. The inhibition at 10 µM (COLO 205) was less than 0%, the inhibition at 10 µM (A498) was less than 0% and the inhibition at 10 µM (HOP-92) was 1.87%. For the same compound, the inhibition at 10 µM (K-562) was 26.9%, the inhibition at 10 µM (SNB-19) was less than 0% and the inhibition at 10 µM (MDA-MB231/ATCC) was 11%. For the same compound, the inhibition at 10 µM (786-0) was less than 0%, the inhibition at 10 µM (NCI-H460) was 1.75% and the inhibition at 10 µM (SNB-75) was less than 0%.
`CCSc1nc(-c2ccc(OC)cc2)cc(-c2cccc(OC)c2)n1` [Compound 17, 2-(Ethylthio)-6-(3-methoxyphenyl)-4-(4-methoxyphenyl)pyrimidine] showed an inhibition at 10 µM (IGROV1) of less than 0%, an inhibition at 10 µM (HCC-2998) of less than 0% and an inhibition at 10 µM (TK-10) of less than 0%. It also gave an inhibition at 10 µM (SK-MEL-2) of 5.15%, an inhibition at 10 µM (NCI-H522) of 5.39% and an inhibition at 10 µM (OVCAR-5) of less than 0%. The inhibition at 10 µM (HOP-62) was less than 0%, the inhibition at 10 µM (RXF 393) was less than 0% and the inhibition at 10 µM (BT-549) was less than 0%. The inhibition at 10 µM (UACC-62) was less than 0%, the inhibition at 10 µM (HL-60(TB)) was 18.6% and the inhibition at 10 µM (MDA-MB-435) was 2.52%. It also gave an inhibition at 10 µM (HCT-116) of 5.86%, an inhibition at 10 µM (A549/ATCC) of 0.61% and an inhibition at 10 µM (RPMI-8226) of 3.83%. It also gave an inhibition at 10 µM (OVCAR-4) of 3.36%, an inhibition at 10 µM (EKVX) of 1.03% and an inhibition at 10 µM (MCF7) of 11%. For the same compound, the inhibition at 10 µM (SK-MEL-5) was 6.31%, the inhibition at 10 µM (CAKI-1) was 9.72% and the inhibition at 10 µM (NCI-H23) was less than 0%. It also gave an inhibition at 10 µM (LOX IMVI) of 5.7%, an inhibition at 10 µM (MDA-MB-468) of less than 0% and an inhibition at 10 µM (OVCAR-8) of less than 0%. It also gave an inhibition at 10 µM (NCI/ADR-RES) of less than 0%, an inhibition at 10 µM (U251) of less than 0% and an inhibition at 10 µM (OVCAR-3) of less than 0%. The inhibition at 10 µM (DU-145) was less than 0%, the inhibition at 10 µM (PC-3) was less than 0% and the inhibition at 10 µM (SR) was 18.4%. The inhibition at 10 µM (UO-31) was 13.7%, the inhibition at 10 µM (NCI-H322M) was less than 0% and the inhibition at 10 µM (SN12C) was less than 0%. The inhibition at 10 µM (MALME-3M) was less than 0%, the inhibition at 10 µM (ACHN 1) was less than 0% and the inhibition at 10 µM (SF-268) was less than 0%. For the same compound, the inhibition at 10 µM (KM12) was 2.23%, the inhibition at 10 µM (SK-MEL-28) was less than 0% and the inhibition at 10 µM (UACC-257) was less than 0%. The inhibition at 10 µM (COLO 205) was less than 0%, the inhibition at 10 µM (A498) was less than 0% and the inhibition at 10 µM (HOP-92) was less than 0%. For the same compound, the inhibition at 10 µM (K-562) was 9.37%, the inhibition at 10 µM (SNB-19) was less than 0% and the inhibition at 10 µM (MDA-MB231/ATCC) was 6.41%. For the same compound, the inhibition at 10 µM (786-0) was less than 0%, the inhibition at 10 µM (NCI-H460) was less than 0% and the inhibition at 10 µM (SNB-75) was less than 0%.
